The values below come from patent publication US7041844B2, “Irreversible non-steroidal antagonist compound and its use in the treatment of prostate cancer” (The University Of Tennessee Research Corporation, priority 1996, dated 2006).

Each structure is given as a SMILES string.

As usually defined, the Kd is the constant that tells how readily two partners part at equilibrium.

The target in one assay is T1, rat prostate AR (Rattus norvegicus, UniProt P15207).
T1 sequence (P15207 1-902): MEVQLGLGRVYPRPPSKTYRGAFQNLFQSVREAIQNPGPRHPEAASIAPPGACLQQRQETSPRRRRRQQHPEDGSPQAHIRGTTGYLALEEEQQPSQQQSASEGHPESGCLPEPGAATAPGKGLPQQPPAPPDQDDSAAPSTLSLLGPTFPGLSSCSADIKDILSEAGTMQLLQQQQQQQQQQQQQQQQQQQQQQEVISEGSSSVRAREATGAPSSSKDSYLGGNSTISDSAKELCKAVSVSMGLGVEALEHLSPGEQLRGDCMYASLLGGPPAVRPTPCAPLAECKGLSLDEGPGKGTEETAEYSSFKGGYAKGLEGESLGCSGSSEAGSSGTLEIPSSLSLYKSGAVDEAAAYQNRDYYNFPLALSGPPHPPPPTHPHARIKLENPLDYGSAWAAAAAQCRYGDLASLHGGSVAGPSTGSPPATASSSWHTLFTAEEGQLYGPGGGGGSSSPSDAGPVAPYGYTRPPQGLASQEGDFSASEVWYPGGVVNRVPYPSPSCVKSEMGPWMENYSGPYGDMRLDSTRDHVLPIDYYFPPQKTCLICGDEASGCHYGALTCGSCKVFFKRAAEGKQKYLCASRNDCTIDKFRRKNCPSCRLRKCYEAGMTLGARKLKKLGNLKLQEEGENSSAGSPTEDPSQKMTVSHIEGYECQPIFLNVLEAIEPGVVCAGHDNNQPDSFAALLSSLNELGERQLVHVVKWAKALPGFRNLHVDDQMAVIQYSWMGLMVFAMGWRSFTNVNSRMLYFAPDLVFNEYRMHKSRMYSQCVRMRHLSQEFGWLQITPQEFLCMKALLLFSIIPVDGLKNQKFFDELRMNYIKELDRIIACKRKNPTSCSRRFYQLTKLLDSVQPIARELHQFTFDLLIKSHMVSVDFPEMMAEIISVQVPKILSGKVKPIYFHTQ
Nature of the assay: Saturation binding of 3H-MIB in the AR preparation (Scatchard analysis).

Another assay concerns the target T2, rat ventral prostate AR (Rattus norvegicus, UniProt P15207).
T2 construct: from tissue; host or cells: ventral prostate cytosol of castrated male Sprague-Dawley rats
T2 sequence (P15207 1-902): T1 sequence (P15207 1-902)
As to the kind of experiment: Competitive displacement of 3H-MIB from AR binding sites. The conditions noted are these: comparison of Ki values. The procedure:
Receptor binding studies for the compounds shown in Table 3 were conducted as follows.
1. AR were isolated from rat ventral prostate tissue by differential centrifugation.
2. Samples of the following composition listed in Table 4 were incubated at 4° C. for 18 hours:
Percent Specific Binding=(B/B0)×100
Data were computer fitted to the equation: […]
Equilibrium dissociation constant of each isomer (Ki) was determined using the equation.
AR isolation was performed as follows.
(In general: In a radioligand displacement assay an active substance lowers the binding of a labelled ligand.)

Turning to `C[C@@H]1CC2=CC(=O)CC[C@@H]2[C@H]2CC[C@@]3(C)[C@@H](CC[C@]3(C)O)[C@@H]21` [MIB, Mibolerone], the Kd at rat prostate AR was 0.182 nM.
Take `O=C(CCl)NS[N+](=O)[O-]` [S-NT-CAA, S-nitro-thio chloroacetamide]: the “AR binding affinity (result in words)” value at rat ventral prostate AR is reported as “close to that of S-Casodex”.
Still for that read-out and setting: the result for `O=[N+]([O-])SN=C=S` [S-NT-NCS, S-nitro-thio-isothiocyanate] reads “close to that of S-Casodex”.
